According to ChEMBL document CHEMBL6078630, “Design, synthesis, and bioactivity investigation of novel cyclic lipopeptide antibiotics targeting top-priority multidrug-resistant gram-negative bacteria” (Eur J Med Chem, 2024):
≈ marks a conversion by molar mass, not a printed value. Bridge positions count the residues as written; N and C are the ends. Square brackets hold non-standard residues; d marks the D form. Peptide text beside a SMILES is read from it. * marks the point of attachment. Heptanoyl(6-Me) = CC(C)CCCCC(=O)*; Octanoyl(6-Me) = CCC(C)CCCCC(=O)*; dDap = NC[C@@H](N)C(=O)O; Dab = NCC[C@H](N)C(=O)O

Legend:
[1] = tested on: Pseudomonas aeruginosa; assay: Antibacterial activity against Pseudomonas aeruginosa ATCC 27853 infected in ICR mouse model administered intravenously with compound at 1 and 6 hrs post-infection and measured after 7 days; type: functional; settings: ATCC 27853, 168 h, route iv, time 7 day
[2] = tested on: Pseudomonas aeruginosa; assay: Antibacterial activity against Pseudomonas aeruginosa ATCC 27853 infected in ICR mouse model infected in ICR mouse model assessed as survival rate at 20 mg/kg, iv administered at 1 and 6 hrs post-infection and measured after 7 days relative to control; type: functional; settings: ATCC 27853, 168 h, time 7 day
[3] = tested on: Klebsiella pneumoniae; assay: Antibacterial activity against carbapenem-resistant Klebsiella pneumoniae ATCC BAA-1705 infected in ICR mouse model administered intravenously with compound at 1 and 6 hrs post-infection and measured after 7 days; type: functional; settings: ATCC BAA-1705, 168 h, route iv, time 7 day
[4] = tested on: Acinetobacter baumannii; assay: Antibacterial activity against carbapenem-resistant Acinetobacter baumannii NCTC13304 infected in ICR mouse model administered intravenously with compound at 1 and 6 hrs post-infection and measured after 7 days; type: functional; settings: NCTC13304, 168 h, route iv, time 7 day
[5] = tested on: Escherichia coli; assay: Antibacterial activity against Escherichia coli ATCC BAA-2523 infected in ICR mouse model administered intravenously with compound at 1 and 6 hrs post-infection and measured after 7 days; type: functional; settings: ATCC BAA-2523, 168 h, route iv, time 7 day
[6] = tested on: Klebsiella pneumoniae; assay: Antibacterial activity against carbapenem-resistant Klebsiella pneumoniae clinical isolate ets45 assessed as inhibition of bacterial growth incubated for 24 hrs by CLSI protocol based broth microdilution method; type: functional
[7] = tested on: Pseudomonas aeruginosa; assay: Antibacterial activity against carbapenem-resistant Pseudomonas aeruginosa clinical isolate 19-3 assessed as inhibition of bacterial growth incubated for 16 to 20 hrs by CLSI protocol based broth microdilution method; type: functional; settings: time 16-20 hrs
[8] = tested on: Escherichia coli; assay: Antibacterial activity against carbapenem-resistant Escherichia coli clinical isolate 231109W005 assessed as inhibition of bacterial growth incubated for 24 hrs by CLSI protocol based broth microdilution method; type: functional
[9] = tested on: Klebsiella pneumoniae; assay: Antibacterial activity against carbapenem-resistant Klebsiella pneumoniae clinical isolate ets26 assessed as inhibition of bacterial growth incubated for 24 hrs by CLSI protocol based broth microdilution method; type: functional
[10] = tested on: Acinetobacter baumannii; assay: Antibacterial activity against carbapenem-resistant Acinetobacter baumannii clinical isolate ets178 assessed as inhibition of bacterial growth incubated for 24 hrs by CLSI protocol based broth microdilution method; type: functional
[11] = tested on: Acinetobacter baumannii; assay: Antibacterial activity against carbapenem-resistant Acinetobacter baumannii clinical isolate ets104 assessed as inhibition of bacterial growth incubated for 24 hrs by CLSI protocol based broth microdilution method; type: functional
[12] = tested on: Pseudomonas aeruginosa; assay: Antibacterial activity against carbapenem-resistant Pseudomonas aeruginosa clinical isolate ets38 assessed as inhibition of bacterial growth incubated for 24 hrs by CLSI protocol based broth microdilution method; type: functional
[13] = tested on: Klebsiella pneumoniae; assay: Antibacterial activity against carbapenem-resistant Klebsiella pneumoniae ATCC BAA-1705 assessed as inhibition of bacterial growth incubated for 16 to 20 hrs by CLSI protocol based broth microdilution method; type: functional; settings: time 16-20 hrs
[14] = tested on: Pseudomonas aeruginosa; assay: Antibacterial activity against carbapenem-resistant Pseudomonas aeruginosa clinical isolate ets49 assessed as inhibition of bacterial growth incubated for 24 hrs by CLSI protocol based broth microdilution method; type: functional
[15] = tested on: Pseudomonas aeruginosa; assay: Antibacterial activity against carbapenem-resistant Pseudomonas aeruginosa clinical isolate ets104 assessed as inhibition of bacterial growth incubated for 24 hrs by CLSI protocol based broth microdilution method; type: functional
[16] = tested on: Escherichia coli; assay: Antibacterial activity against carbapenem-resistant Escherichia coli clinical isolate 231112E006B assessed as inhibition of bacterial growth incubated for 24 hrs by CLSI protocol based broth microdilution method; type: functional
[17] = tested on: Escherichia coli; assay: Antibacterial activity against Escherichia coli ATCC BAA-2523 assessed as inhibition of bacterial growth incubated for 16 to 20 hrs by CLSI protocol based broth microdilution method; type: functional; settings: time 16-20 hrs
[18] = tested on: Pseudomonas aeruginosa; assay: Antibacterial activity against carbapenem-resistant Pseudomonas aeruginosa clinical isolate ets33 assessed as inhibition of bacterial growth incubated for 24 hrs by CLSI protocol based broth microdilution method; type: functional
[19] = tested on: Klebsiella pneumoniae; assay: Antibacterial activity against carbapenem-resistant Klebsiella pneumoniae clinical isolate ets77 assessed as inhibition of bacterial growth incubated for 24 hrs by CLSI protocol based broth microdilution method; type: functional
[20] = tested on: Pseudomonas aeruginosa; assay: Antibacterial activity against carbapenem-resistant Pseudomonas aeruginosa clinical isolate ets84 assessed as inhibition of bacterial growth incubated for 24 hrs by CLSI protocol based broth microdilution method; type: functional
[21] = tested on: Pseudomonas aeruginosa; assay: Antibacterial activity against carbapenem-resistant Pseudomonas aeruginosa clinical isolate ets55 assessed as inhibition of bacterial growth incubated for 24 hrs by CLSI protocol based broth microdilution method; type: functional
[22] = tested on: Pseudomonas aeruginosa; assay: Antibacterial activity against Pseudomonas aeruginosa ATCC 27853 assessed as inhibition of bacterial growth incubated for 16 to 20 hrs by CLSI protocol based broth microdilution method; type: functional; settings: time 16-20 hrs
[23] = tested on: Acinetobacter baumannii; assay: Antibacterial activity against carbapenem-resistant Acinetobacter baumannii clinical isolate ets171 assessed as inhibition of bacterial growth incubated for 24 hrs by CLSI protocol based broth microdilution method; type: functional
[24] = tested on: Acinetobacter baumannii; assay: Antibacterial activity against carbapenem-resistant Acinetobacter baumannii clinical isolate ets123 assessed as inhibition of bacterial growth incubated for 24 hrs by CLSI protocol based broth microdilution method; type: functional
[25] = Renal cytotoxicity against HK-2 cells incubated for 72 hrs by CCK8 assay; type: toxicity, cell-based; settings: human
[26] = tested on: Pseudomonas aeruginosa; assay: Antibacterial activity against carbapenem-resistant Pseudomonas aeruginosa clinical isolate ets22 assessed as inhibition of bacterial growth incubated for 24 hrs by CLSI protocol based broth microdilution method; type: functional
[27] = tested on: Pseudomonas aeruginosa; assay: Antibacterial activity against carbapenem-resistant Pseudomonas aeruginosa clinical isolate ets15 assessed as inhibition of bacterial growth incubated for 24 hrs by CLSI protocol based broth microdilution method; type: functional
[28] = tested on: Acinetobacter baumannii; assay: Antibacterial activity against carbapenem-resistant Acinetobacter baumannii clinical isolate ets30 assessed as inhibition of bacterial growth incubated for 24 hrs by CLSI protocol based broth microdilution method; type: functional
[29] = tested on: Klebsiella pneumoniae; assay: Antibacterial activity against carbapenem-resistant Klebsiella pneumoniae clinical isolate ets75 assessed as inhibition of bacterial growth incubated for 24 hrs by CLSI protocol based broth microdilution method; type: functional
[30] = tested on: Escherichia coli; assay: Antibacterial activity against carbapenem-resistant Escherichia coli clinical isolate 231016w014 assessed as inhibition of bacterial growth incubated for 24 hrs by CLSI protocol based broth microdilution method; type: functional
[31] = tested on: Acinetobacter baumannii; assay: Antibacterial activity against Acinetobacter baumannii NCTC 13304 (OXA-27) assessed as inhibition of bacterial growth incubated for 16 to 20 hrs by CLSI protocol based broth microdilution method; type: functional; settings: time 16-20 hrs
[32] = tested on: Escherichia coli; assay: Antibacterial activity against carbapenem-resistant Escherichia coli ATCC BAA-2340 assessed as inhibition of bacterial growth incubated for 16 to 20 hrs by CLSI protocol based broth microdilution method; type: functional; settings: time 16-20 hrs
[33] = tested on: Pseudomonas aeruginosa; assay: Antibacterial activity against carbapenem-resistant Pseudomonas aeruginosa clinical isolate ets6 assessed as inhibition of bacterial growth incubated for 24 hrs by CLSI protocol based broth microdilution method; type: functional
[34] = tested on: Klebsiella pneumoniae; assay: Antibacterial activity against carbapenem-resistant Klebsiella pneumoniae clinical isolate ets74 assessed as inhibition of bacterial growth incubated for 24 hrs by CLSI protocol based broth microdilution method; type: functional
[35] = tested on: Klebsiella pneumoniae; assay: Antibacterial activity against carbapenem-resistant Klebsiella pneumoniae clinical isolate KPN+19-15 assessed as inhibition of bacterial growth incubated for 16 to 20 hrs by CLSI protocol based broth microdilution method; type: functional; settings: time 16-20 hrs
[36] = tested on: Klebsiella pneumoniae; assay: Antibacterial activity against carbapenem-resistant Klebsiella pneumoniae clinical isolate ets78 assessed as inhibition of bacterial growth incubated for 24 hrs by CLSI protocol based broth microdilution method; type: functional
[37] = tested on: Klebsiella pneumoniae; assay: Antibacterial activity against carbapenem-resistant Klebsiella pneumoniae clinical isolate ets80 assessed as inhibition of bacterial growth incubated for 24 hrs by CLSI protocol based broth microdilution method; type: functional
[38] = tested on: Pseudomonas aeruginosa; assay: Antibacterial activity against carbapenem-resistant Pseudomonas aeruginosa clinical isolate ets83 assessed as inhibition of bacterial growth incubated for 24 hrs by CLSI protocol based broth microdilution method; type: functional
[39] = tested on: Klebsiella pneumoniae; assay: Antibacterial activity against carbapenem-resistant Klebsiella pneumoniae clinical isolate ets40 assessed as inhibition of bacterial growth incubated for 24 hrs by CLSI protocol based broth microdilution method; type: functional
[40] = tested on: Pseudomonas aeruginosa; assay: Antibacterial activity against carbapenem-resistant Pseudomonas aeruginosa clinical isolate ets85 assessed as inhibition of bacterial growth incubated for 24 hrs by CLSI protocol based broth microdilution method; type: functional
[41] = tested on: Acinetobacter baumannii; assay: Antibacterial activity against carbapenem-sensitive Acinetobacter baumannii clinical isolate 19-1 assessed as inhibition of bacterial growth incubated for 16 to 20 hrs by CLSI protocol based broth microdilution method; type: functional; settings: time 16-20 hrs
[42] = tested on: Pseudomonas aeruginosa; assay: Antibacterial activity against carbapenem-resistant Pseudomonas aeruginosa clinical isolate ets5 assessed as inhibition of bacterial growth incubated for 24 hrs by CLSI protocol based broth microdilution method; type: functional

Structure (SMILES): C[C@@H](O)[C@H]1C(=O)N2C(C(=O)O)=C(S[C@@H]3CN[C@H](C(=O)N(C)C)C3)[C@H](C)[C@H]12 [MEROPENEM]
- ED50 [1]: 7.07 mg/kg
- survival at 20 mg/kg [2]: 100%

Structure (SMILES): CCC(C)CCCCC(=O)N[C@@H](CCN)C(=O)N[C@H](C(=O)N[C@@H](CCN)C(=O)N[C@H]1CCNC(=O)[C@H]([C@@H](C)O)NC(=O)[C@H](CCN)NC(=O)[C@H](CCN)NC(=O)[C@H](CC(C)C)NC(=O)[C@@H](CC(C)C)NC(=O)[C@H](CCN)NC1=O)[C@@H](C)O (stereo partly drawn) ({Octanoyl(6-Me)}-[Dab]T[Dab][Dab][Dab][dL]L[Dab][Dab]T; lactam 4-C)
- ED50 [3]: 0.39 mg/kg
- ED50 [4]: 0.98 mg/kg
- ED50 [5]: 0.47 mg/kg

Structure (SMILES): CC(C)CCCCC(=O)N[C@@H](CCN)C(=O)N[C@H](C(=O)N[C@H](CN)C(=O)N[C@H]1CCNC(=O)[C@H]([C@@H](C)O)NC(=O)[C@H](CCN)NC(=O)[C@H](CCN)NC(=O)[C@H]([C@@H](C)O)NC(=O)[C@@H](Cc2ccccc2)NC(=O)[C@H](CCN)NC1=O)[C@@H](C)O ({Heptanoyl(6-Me)}-[Dab]T[dDap][Dab][Dab][dF]T[Dab][Dab]T; lactam 4-C)
- MIC [6]: 0.25 µg/mL (≈ 0.215 µM)
- MIC [7]: 0.125 µg/mL (≈ 0.107 µM)
- MIC [8]: < 0.06 µg/mL
- MIC [9]: 0.5 µg/mL (≈ 0.43 µM)
- MIC [10]: 1 µg/mL (≈ 0.86 µM)
- MIC [11]: 0.06 µg/mL (≈ 0.0516 µM)
- MIC [12]: 0.5 µg/mL (≈ 0.43 µM)
- MIC [13]: ≤ 0.03 µg/mL
- MIC [14]: < 0.06 µg/mL
- MIC [15]: 1 µg/mL (≈ 0.86 µM)
- MIC [16]: < 0.06 µg/mL
- MIC [17]: ≤ 0.03 µg/mL
- MIC [18]: 4 µg/mL (≈ 3.44 µM)
- MIC [19]: 0.5 µg/mL (≈ 0.43 µM)
- MIC [20]: 2 µg/mL (≈ 1.72 µM)
- MIC [21]: 1 µg/mL (≈ 0.86 µM)
- MIC [22]: ≤ 0.03 µg/mL
- MIC [23]: 0.5 µg/mL (≈ 0.43 µM)
- MIC [24]: 2 µg/mL (≈ 1.72 µM)
- IC50 at 72 h [25]: > 500 µg/mL
- MIC [26]: 2 µg/mL (≈ 1.72 µM)
- MIC [27]: 1 µg/mL (≈ 0.86 µM)
- MIC [28]: 2 µg/mL (≈ 1.72 µM)
- MIC [29]: 0.5 µg/mL (≈ 0.43 µM)
- MIC [30]: < 0.06 µg/mL
- MIC [31]: ≤ 0.03 µg/mL
- MIC [32]: ≤ 0.03 µg/mL
- MIC [33]: 0.5 µg/mL (≈ 0.43 µM)
- MIC [34]: 0.5 µg/mL (≈ 0.43 µM)
- MIC [35]: ≤ 0.03 µg/mL
- MIC [36]: 0.25 µg/mL (≈ 0.215 µM)
- MIC [37]: 0.5 µg/mL (≈ 0.43 µM)
- MIC [38]: 0.5 µg/mL (≈ 0.43 µM)
- MIC [39]: 0.125 µg/mL (≈ 0.107 µM)
- MIC [40]: 0.5 µg/mL (≈ 0.43 µM)
- MIC [41]: ≤ 0.03 µg/mL
- MIC [42]: 1 µg/mL (≈ 0.86 µM)
